According to US8975400B2, “2,3-dihydroimidazo[1, 2-c] pyrimidin-5(1 H)-one compounds use as LP-PLA2 inhibitors” (Glaxo Group Limited, priority 2011, dated 2015):
Counter-ions that a name gives are not always drawn.

Columns and labels:
[1] = tested on: experimental autoimmune encephalomyelitis (EAE) induced by myelin basic protein (MBP); test: Rat experimental autoimmune encephalomyelitis (EAE) model, preventive treatment; assay type: in vivo
Method: A further study was carried out to study the impact of Lp-PLA2 inhibitors on modulating M1/M2 imbalance. In this study, rats were induced to develop experimental autoimmune encephalomyelitis (EAE) by immunization with myelin basic protein (MBP) antigen and treated with a known Lp-PLA2 inhibitor: 5-((9-Methoxy-4-oxo-6,7-dihydro-4H-pyrimido[6,1-a]isoquinolin-2-yl)oxy)-2-(3-(trifluoromethyl)phenoxy)benzonitrile (See PCT application no. PCT/CN2011/001597). In this preventive treatment model, the compound was administered at day 0 (day of immunization) and continued to administer until day 22. The study lasted for 25 days. Rats were subsequently monitored for symptoms of EAE. Rats were immunized with MBP to develop EAE and symptoms were monitored daily. Plasma Lp-PLA2 activity, OxLDL, and LysoPC concentration were determined at different time points through the course of EAE.

[2] = tested on: splenic macrophages and CNS infiltrating macrophages (M1/M2 markers); test: Ex vivo analysis of M1 and M2 markers in macrophages of EAE rats by realtime PCR; parameters: species or system rat; details: splenic macrophages harvested day 13 post MBP-immunization
Method: Ex vivo analysis of proinflammatory (M1) and anti-inflammatory (M2) markers in control and compound treated EAE rats. Splenic macrophages were harvested at day 13 post MBP-immunization and assayed for expression of a variety of markers by realtime PCR. CNS infiltrating cells were harvested and macrophages were analyzed for expression of M1 and M2 markers by realtime PCR.

[3] = target: T1, recombinant human Lp-PLA2 (Homo sapiens, UniProt Q13093); test: Recombinant human Lp-PLA2 assay (rhLp-PLA2, PED6 assay); assay type: biochemical; details: recombinant human Lp-PLA2, PED6 substrate; upper limit for pIC50 in this assay is 9.3
T1 sequence (Q13093 22-441): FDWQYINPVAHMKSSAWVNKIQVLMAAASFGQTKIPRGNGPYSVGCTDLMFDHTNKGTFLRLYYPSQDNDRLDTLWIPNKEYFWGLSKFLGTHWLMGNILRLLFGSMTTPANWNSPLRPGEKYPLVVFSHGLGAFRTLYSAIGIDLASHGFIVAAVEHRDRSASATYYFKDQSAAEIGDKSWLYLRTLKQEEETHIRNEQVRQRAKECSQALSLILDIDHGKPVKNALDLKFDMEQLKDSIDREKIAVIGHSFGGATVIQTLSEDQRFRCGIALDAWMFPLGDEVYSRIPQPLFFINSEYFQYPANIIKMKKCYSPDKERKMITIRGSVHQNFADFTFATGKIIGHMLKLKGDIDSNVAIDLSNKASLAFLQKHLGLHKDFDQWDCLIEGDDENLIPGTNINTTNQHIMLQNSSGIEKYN
Procedure, shortened: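 Compound preincubated 30 min with rhLp-PLA2 (4 nM or 110 pM) in 50 mM HEPES pH 7.4, 150 mM NaCl, 1 mM CHAPS, then PED6 substrate (4 μM or 5 μM) added. After 20 min at room temperature protected from light, fluorescence read at ex 480/em 540. pIC50 derived from serial-dilution curves.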

Lp-PLA2 in human plasma = target: T2, Lp-PLA2 in human plasma (Homo sapiens, UniProt Q13093); test: Lp-PLA2 human plasma assay (Thio-PAF assay); assay type: biochemical; details: pooled human plasma, 2-thio-PAF substrate; read-out: pIC50 in the thio-PAF assay (converted)
T2 construct: This assay may detect the activity of Lp-PLA2 in human plasma; from tissue; host or cells: pooled human plasma
T2 sequence (Q13093 22-441): T1 sequence (Q13093 22-441)
Procedure, shortened: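 Pooled human plasma preincubated 30 min with serially diluted compounds, then 2-thio-PAF substrate with CPM and NEM added in 50 mM HEPES pH 7.4, 150 mM NaCl, 1 mM CHAPS. TFA-quenched after 2 min, 40 min at RT, fluorescence ex 380/em 485; pIC50 from curve fit.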

SMILES | IC50 [3] | IC50 (Lp-PLA2 in human plasma) | further results
COc1ccc2c(c1)CCn1c-2cc(Oc2ccc(Oc3cccc(C(F)(F)F)c3)c(C#N)c2)nc1=O [5-((9-Methoxy-4-oxo-6,7-dihydro-4H-pyrimido[6,1-a]isoquinolin-2-yl)oxy)-2-(3-(trifluoromethyl)phenoxy)benzonitrile] |  |  | LysoPC levels ([1]; rat EAE plasma): decreased; plasma Lp-PLA2 activity ([1]; rat EAE plasma): decreased; clinical disease (EAE) ([1]; rat EAE, compound administered day 0 until day 22, study 25 days): reduction in clinical disease; M1 (proinflammatory) markers expression [2]: decrease in M1 markers; M2 (anti-inflammatory) markers expression [2]: increase in M2 markers
N#Cc1ccc(Oc2ccc(COc3cc4n(c(=O)n3)CCN4)cc2C#N)cc1F [Example E64, 4-(2-cyano-4-(((5-oxo-1,2,3,5-tetrahydroimidazo[1,2-c]pyrimidin-7-yl)oxy)methyl)p-henoxy)-2-fluorobenzonitrile] | ≤ 10 nM | ≤ 100 nM | 
N#Cc1cc(COc2cc3n(c(=O)n2)CCN3)ccc1Oc1ccc(C(F)(F)F)c(F)c1 [Example E65, 2-(3-fluoro-4-(trifluoromethyl)phenoxy)-5-(((5-oxo-1,2,3,5-tetrahydroimidazo[1,2-c]pyrimidin-7-yl)oxy)methyl)benzonitrile] | 0.631 nM | ≤ 100 nM | 
O=c1nc(OCc2ccc(Oc3ccc(F)c(C(F)(F)F)c3)c(F)c2)cc2n1CCN2 [Example E66, 7-((3-fluoro-4-(4-fluoro-3-(trifluoromethyl)phenoxy)benzyl)oxy)-2,3-dihydroimidaz-o[1,2-c]pyrimidin-5(1H)-one] | ≤ 1 nM | ≤ 100 nM | 
N#Cc1cc(COc2cc3n(c(=O)n2)CCN3)ccc1Oc1cccc(C(F)(F)F)c1 [Example E67, 5-(((5-oxo-1,2,3,5-tetrahydroimidazo[1,2-c]pyrimidin-7-yl)oxy)methyl)-2-(3-(trifluoromethyl)phenoxy)benzonitrile] | ≤ 1 nM | ≤ 100 nM | 
CN1CCn2c1cc(OCc1ccc(Oc3ccc(Br)c(F)c3)c(C#N)c1)nc2=O [Example E70, 2-(4-bromo-3-fluorophenoxy)-5-(((I-methyl-5-oxo-1,2,3,5-tetrahydroimidazo[1,2-c]pyrimidin-7-yl)oxy)methyl)benzonitrile] | ≤ 1 nM | ≤ 1000 nM | 
N#Cc1cc(COc2cc3n(c(=O)n2)CCN3)ccc1Oc1ccc(F)c(F)c1 [Example E72, 2-(3,4-difluorophenoxy)-5-(((5-oxo-1,2,3,5-tetrahydroimidazo[1,2-c]pyrimidin-7-yl)oxy)methyl)benzonitrile, trifluoroacetic acid salt] | ≤ 1 nM | ≤ 1000 nM | 
CN1CCn2c1cc(OCc1ccc(Oc3cnc(F)c(F)c3)c(C#N)c1)nc2=O [Example E73, 2-((5,6-difluoropyridin-3-yl)oxy)-5-(((1-methyl-5-oxo-1,2,3,5-tetrahydroimidazo[1,2-c]pyrimidin-7-yl)oxy)methyl)benzonitrile] | ≤ 10 nM | ≤ 1000 nM | 
CN1CCn2c1cc(OCc1cc(F)c(Oc3ccc(F)c(F)c3)c(F)c1)nc2=O [Example E75, 7-((4-(3,4-difluorophenoxy)-3,5-difluorobenzyl)oxy)-1-methyl-2,3-dihydroimida-zo[1,2-c]pyrimidin-5(1H)-one] | ≤ 10 nM | ≤ 1000 nM | 
N#Cc1cc(COc2cc3n(c(=O)n2)CCN3)ccc1Oc1ccc(F)c(Cl)c1 [Example E76, 2-(3-chloro-4-fluorophenoxy)-5-(((5-oxo-1,2,3,5-tetrahydroimidazo[1,2-c]pyrimidin-7-yl)oxy)methyl)benzonitrile, trifluoroacetic acid salt] | ≤ 1 nM | ≤ 1000 nM | 
O=c1nc(OCc2ccc(Oc3cc(F)c(F)c(F)c3)c(F)c2)cc2n1CCN2 [Example E77, 7-((3-fluoro-4-(3,4,5-trifluorophenoxy)benzyl)oxy)-2,3-dihydroimidazo[1,2-c]pyrimidin-5(1H)-one, trifluoroacetic acid salt] | ≤ 1 nM | ≤ 1000 nM | 
CN1CCn2c1cc(OCc1ccc(Oc3ccc(C#N)c(C(F)(F)F)c3)c(C#N)c1)nc2=O [Example E78, 4-(2-cyano-4-(((l-methyl-5-oxo-1,2,3,5-tetrahydroimidazo[1,2-c]pyrimidin-7-yl)oxy)methyl)phenoxy)-2-(trifluoromethyl)benzonitrile] | < 0.501 nM | ≤ 100 nM | 
CN1CCn2c1cc(OCc1ccc(Oc3ccnc(C(F)(F)F)c3)c(C#N)c1)nc2=O [Example E80, 5-(((1-methyl-5-oxo-1,2,3,5-tetrahydroimidazo[1,2-c]pyrimidin-7-yl)oxy)methyl)-2-((2-(trifluoromethyl)pyridin-4-yl)oxy)benzonitrile] | 1.26 nM | ≤ 100 nM | 
CN1CCn2c1cc(OCc1cc(F)c(Oc3ccc(F)c(C(F)(F)F)c3)c(F)c1)nc2=O [Example E81, 7-((3,5-difluoro-4-(4-fluoro-3-(trifluoromethyl)phenoxy)benzyl)oxy)-1-methyl-2,3-dihydroimidazo[1,2-c]pyrimidin-5(1H)-one] | ≤ 1 nM | ≤ 100 nM | 
CN1CCn2c1cc(OCc1cc(F)c(Oc3cccc(Cl)c3)c(F)c1)nc2=O [Example E82, 7-((4-(3-chlorophenoxy)-3,5-difluorobenzyl)oxy)1-methyl-2,3-dihydroimidazo[1,2-c]pyrimidin-5(1H)-one] | ≤ 1 nM | ≤ 1000 nM | 
CN1CCn2c1cc(OCc1ccc(Oc3ccc(C#N)c(C(F)(F)F)c3)c(F)c1)nc2=O [Example E83, 4-(2-fluoro-4-(((1-methyl-5-oxo-1,2,3,5-tetrahydroimidazo[1,2-c]pyrimidin-7-yl)oxy)methyl)phenoxy)-2-(trifluoromethyl)benzonitrile, trifluoroacetic acid salt] | 0.631 nM | ≤ 100 nM | 
CN1CCn2c1cc(OCc1cc(F)c(Oc3ccc(C(F)(F)F)cc3)c(F)c1)nc2=O [Example E84, 7-((3,5-difluoro-4-(4-(trifluoromethyl)phenoxy)benzyl)oxy)-1-methyl-2,3-dihydroimidazo[1,2-c]pyrimidin-5(1H)-one] | ≤ 10 nM | ≤ 1000 nM | 
CN1CCn2c1cc(OCc1ccc(Oc3ccc(Cl)c(C(F)(F)F)c3)c(F)c1)nc2=O [Example E85, 7-((4-(4-chloro-3-(trifluoromethyl)phenoxy)-3-fluorobenzyl)oxy)-1-methyl-2,3-dihydroimidazo[1,2-c]pyrimidin-5(1H)-one] | ≤ 1 nM | ≤ 100 nM | 
CN1CCn2c1cc(OCc1cc(F)c(Oc3ccc(Cl)c(F)c3)c(F)c1)nc2=O [Example E86, 7-((4-(4-chloro-3-fluorophenoxy)-3,5-difluorobenzyl)oxy)-1-methyl-2,3-dihydroimi-dazo[1,2-c]pyrimidin-5(1H)-one] | ≤ 1 nM | ≤ 100 nM | 
CN1CCn2c1cc(OCc1cc(F)c(Oc3ccc(F)c(Cl)c3)c(F)c1)nc2=O [Example E87, 7-((4-(3-chloro-4-fluorophenoxy)-3,5-difluorobenzyl)oxy)-1-methyl-2,3-dihydroimidazo[1,2-c]pyrimidin-5(1H)-one] | ≤ 1 nM | ≤ 100 nM | 
